Assay results: article PMC9145393, “Design, Semisynthesis, and Estrogenic Activity of Lignan Derivatives from Natural Dibenzylbutyrolactones” (Pharmaceuticals, 2022)
Values joined by “and” are separate entries in the source; they are usually repeats but may differ in a detail not shown here. Equal entries are not always repeated. Where two headings read alike, the source gives them in different places.

Columns and labels:
rhERα-LBD = molecular target: T1, rhERα-LBD (Homo sapiens, UniProt P03372); assay: LanthaScreen TR-FRET competitive binding assay; conditions: 10-point competition curves, Mean ± SE
T1 sequence (P03372 311-547 limits assumed): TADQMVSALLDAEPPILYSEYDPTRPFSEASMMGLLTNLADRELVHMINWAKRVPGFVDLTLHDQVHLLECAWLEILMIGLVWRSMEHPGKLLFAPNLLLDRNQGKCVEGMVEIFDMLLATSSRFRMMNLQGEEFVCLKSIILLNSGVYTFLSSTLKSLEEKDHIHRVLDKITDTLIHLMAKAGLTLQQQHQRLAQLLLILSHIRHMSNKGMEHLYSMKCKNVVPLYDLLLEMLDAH
Description: Next, the binding of lignan derivatives to the LBD of rhERα was analyzed by using time-resolved fluorescence resonance energy transfer (TR-FRET) competitive binding assay. […] The LanthaScreen^TM TR-FRET Nuclear Receptor (NR) binding assay (SelectScreen^TM Profiling Service, Life Technologies, Carlsbad, CA, USA) was used for screening of potential binding of lignan derivatives to human ERα [33]. Briefly, the kit uses the recombinant human ERα (rhERα) protein and a tight binding, selective fluorescent ligand, Fluormone^TM tracer. […] The rhERα protein and the tracer form rhERα/tracer complex, resulting in a high FP value. […] Dose-response competition curves were fitted by nonlinear regression analyses in the GraphPad software 8 (GraphPad Software, San Diego, CA, USA) to obtain IC50 values.
Data are expressed as mean ± SEM for from at least three independent experiments, where each concentration is tested in triplicate.

[1] = tested on: ER-dependent transcriptional activity in T47D-KBluc cells; assay: ERE-luciferase reporter in T47D-KBluc cells, agonist assessment (absence of E2); type: cell-based, human; design: Emax: dose or concentration left out as unconfirmed; conditions: for Emax: Homo sapiens, read-out: E/Emax (%) VEH; for E/Emax (%) VEH: lignans 5 μM, absence of E2 (VEH), relative to Emax induced by 0.1 nM E2, Mean ± SEM
Description: (§1) Lactols (5) and (6) were tested as a mixture of the two epimers obtained.
(§2) Chemical screening was carried out by using T47D-KBluc cells, an ER+ BC cell line that is stably transfected with the pGL2.TATA.Inr.Luc.neo containing three ER-responsive elements (ERE). The T47D-KBluc cells were maintained in standard growth media as detailed above. Dosing media was further modified by reduction of DCC-FBS to 5%. […] Chemical screening was also carried out by using the triple negative BC cell line MDA-kb2 cells that stably expresses pMMTV.neo.luc gene, an AR- and GR-responsive reporter gene. […] The T47D-KBluc cells or the MDA-kb2 cells were seeded at 100,000 cells per well in 24-well plates (Nunclon, Sigma-Aldrich, Darmstadt, Germany ) and allowed to attach overnight. Then, the media was replaced with 1 mL/well of dosing media and test compounds incubated 24 h. Then, the cells were harvested in 100 µL passive lysis buffer (Promega, Madison, WI, USA) per well. The relative light units (RLUs), which correspond to luciferase activity from each sample, were measured by using Luciferase Assay Reagent (Promega) in a Clarity luminescence microplate reader (BIOTEK, Winooski, VT, USA). The RLUs from each sample were normalized by protein concentration and converted to fold induction with respect to vehicle-treated control. […] Then, the percent of efficacy (E) of each tested compound, as compared with Emax, was calculated. […] Data are expressed as mean ± SEM of triplicate independent experiments, where each treatment was assayed in triplicate. […] Duplicate plates were dosed in parallel to control the effects of compounds on cell viability. The protein concentration was measured in cell lysate using colorimetric assay reagent (BioRad, CA, USA).

T47D cells = assay: MTT cell viability, E2-depleted T47D cells; type: cell-based, human; conditions: 10 μM, 24 h, absence of E2
Description: The effects of lignan derivatives were evaluated on human ER+ BC cells.
Cells were maintained in RPMI (Lonza, Basel, Switzerland) growth media, without phenol red, supplemented with 10% fetal bovine serum (FBS) (Lonza), 2 mM glutamine, 10 mM HEPES, 1 mM sodium pyruvate, 100 UI/mL penicillin and 100 μg/mL streptomycin. Cells were growth in a humidified incubator with 5% CO2 at 37 °C.
The cells were maintained in standard growth media as detailed above and seeded at exponential growth density (6000 cells per well) in 96-well plates (BD Falcon, France). The cells were then treated with vehicle or tests compounds (from 0.01 μM to 10 μM) for 24–72 h. The mitochondrial metabolization of the tetrazolium salt 3-(4,5-methyltiazol-2yl-)-2,5diphenyl-tetrazolium bromide] (MTT) (Applichen, Darmstadt, Germany) was used as an indicator of cell viability.
Figure 6 Effects of lignans on ER+ breast cancer cell viability. […] Then, the mitochondrial metabolization of MTT was used as an indicator of cell viability, as described in the Material and Methods. Data are expressed as mean ± SEM for at least three independent experiments, where each concentration is tested in triplicate. * p < 0.05, ** p < 0.01, and *** p < 0.001 versus VEH-treated cells.

[2] = tested on: E2-induced ERE-luciferase activity in T47D-KBluc cells; assay: ERE-luciferase reporter in T47D-KBluc cells, antagonist assessment (presence of 0.1 nM E2); type: cell-based; conditions: Homo sapiens
Description: as §1
as §2, with “Then, the media was replaced with 1 mL/well of dosing media and test compounds incubated 24 h.” left out

[3] = read-out: IC50 (inhibition of Fluormone tracer binding to rhERα)
[4] = read-out: IC50 (reduction of E2-induced Emax), lignans 1 μM to 10 μM, 1 h before 0.1 nM E2 for 18 h, predicted by nonlinear regression, Mean ± SE

COc1ccc(C[C@H]2C(O)OC[C@@H]2Cc2ccc3c(c2)OCO3)cc1OC (mixture of isomers) [Compound 5, (3R,4R)-4-(Benzo[d][1,3]dioxol-5-ylmethyl)-3-(3,4-dimethoxybenzyl) Tetrahydro Furan-2-ol]
IC50 (rhERα-LBD; [3]): 3.24 ± 2.03 µM
Emax [1]: 22.7 ± 4.26%
E/Emax (%) VEH [1]: weak estrogenic activity

COc1ccc(C[C@H]2COC(O)[C@@H]2Cc2ccc(OC)c(OC)c2)cc1OC (mixture of isomers) [Compound 6, (3R,4R)-3,4-Bis(3,4-dimethoxybenzyl)tetrahydrofuran-2-ol]
reduction of cell viability (T47D cells): 16.6%
Emax [1]: 5.86 ± 0.84%

COc1ccc(C[C@H]2C(=O)OC[C@@H]2Cc2ccc3c(c2)OCO3)cc1OC [Compound 1, (−)-Bursehernin]
IC50 (rhERα-LBD; IC50 (inhibition of Fluormone tracer binding to rhERα)): 0.39 ± 0.19 µM
reduction of cell viability (T47D cells): reduced cell viability
Emax [1]: 17.6 ± 5.4%
IC50 ([2]; lignans 1 μM to 10 μM, 1 h before 0.1 nM E2 for 18 h, predicted by nonlinear regression, Mean ± SE, read-out: IC50 (reduction of E2-induced Emax)): < 20 µM

O=C1OC[C@H](Cc2ccc(O)c(O)c2)[C@H]1Cc1ccc(O)c(O)c1 [Compound 3, (3R,4R)-3,4-Bis(3,4-dihydroxybenzyl)dihydrofuran-2(3H)-one]
IC50 (rhERα-LBD; [3]): 0.6 ± 0.11 µM
Emax [1]: 24.5 ± 6.53%
E/Emax (%) VEH [1]: weak estrogenic activity

COc1ccc(C[C@H]2C(=O)OC[C@@H]2Cc2ccc(O)c(O)c2)cc1OC [Compound 4, (3R,4R)-4-(3,4-Dihydroxybenzyl)-3-(3,4-dimethoxybenzyl)dihydrofuran-2(3H)-one]
IC50 (rhERα-LBD; [3]): 6 µM and 6.04 µM
Emax [1]: 15.8 ± 2.15%
IC50 [2, 4]: > 10 µM

CC/C(=C(\c1ccc(O)cc1)c1ccc(OCCN(C)C)cc1)c1ccccc1 [Compound 4-OHTAM, 4-hydroxytamoxifen, reference compound]
IC50 ([2]; read-out: IC50 (abolition of E2 effect by coincubation), antiestrogen coincubated with E2): 0.38 ± 0.009 µM

COc1ccc(C[C@@H](CO)[C@H](CO)Cc2ccc3c(c2)OCO3)cc1OC [Compound 7, (2R,3R)-2-(Benzo[d][1,3]dioxol-5-ylmethyl)-3-(3,4-dimethoxybenzyl)butane-1,4-diol]
IC50 (rhERα-LBD; [3]): 4 ± 1.6 µM
Emax [1]: 13.1 ± 2.58%

COc1ccc(C[C@@H](CO)[C@H](CO)Cc2ccc(OC)c(OC)c2)cc1OC [Compound 8, (2R,3R)-2,3-Bis(3,4-dimethoxybenzyl)butane-1,4-diol]
reduction of cell viability (T47D cells): reduced cell viability
Emax [1]: 9.41 ± 1.88%

COc1ccc(C[C@H]2COC[C@@H]2Cc2ccc3c(c2)OCO3)cc1OC [Compound 9]
IC50 (rhERα-LBD; [3]): 8 µM and 7.65 µM
reduction of cell viability (T47D cells): 55.6%
Emax [1]: 23.8 ± 6.34%
E/Emax (%) VEH [1]: weak estrogenic activity

COc1ccc(C[C@H]2COC[C@@H]2Cc2ccc(OC)c(OC)c2)cc1OC [Compound 10, (3R,4R)-3,4-Bis(3,4-dimethoxybenzyl)tetrahydrofuran]
Emax [1]: 3.91 ± 1.55%

COc1ccc(C[C@H]2COC[C@@H]2Cc2ccc(O)c(O)c2)cc1OC [Compound 11]
IC50 (rhERα-LBD; [3]): 0.5 ± 0.17 µM
reduction of cell viability (T47D cells): reduced cell viability
Emax [1]: 12.1 ± 4.33%
E/Emax (%) VEH [1]: weak estrogenic activity
IC50 [2, 4]: < 20 µM

COc1ccc(C[C@@H](COS(C)(=O)=O)[C@H](COS(C)(=O)=O)Cc2ccc3c(c2)OCO3)cc1OC [Compound 12, (2R,3R)-2-(Benzo[d][1,3]dioxol-5-ylmethyl)-3-(3,4-dimethoxybenzyl)butane-1,4-diyl Dimethanesulfonate]
reduction of cell viability (T47D cells): reduced cell viability
Emax [1]: 22.2 ± 3.89%
E/Emax (%) VEH [1]: weak estrogenic activity

COc1ccc(C[C@@H](C)[C@H](C)Cc2ccc3c(c2)OCO3)cc1OC [Compound 13, 5-((2R,3R)-4-(3,4-Dimethoxyphenyl)-2,3-dimethylbutyl)benzo[d][1,3]dioxole]
IC50 (rhERα-LBD; [3]): 5.02 ± 1.54 µM
reduction of cell viability (T47D cells): reduced cell viability
Emax [1]: 16.7 ± 3.37%

COc1cc2c(cc1OC)-c1cc(O)c(O)cc1C[C@H]1COC(=O)[C@@H]1C2 [Compound 15, (3aR,13aR)-6,7-Dihydroxy-10,11-dimethoxy-3a,4,13,13a-tetrahydro Dibenzo [4,5:6,7]Cycloocta [1,2-c]Furan-1(3H)-one]
Emax [1]: 15.6 ± 5.66%

O=C1OC[C@@H]2Cc3cc(O)c(O)cc3-c3cc(O)c(O)cc3C[C@@H]12 [Compound 16, (3aR,13aR)-6,7,10,11-Tetrahydroxy-3a,4,13,13a-tetrahydrodibenzo [4,5:6,7] Cycloocta [1,2-c]Furan-1(3H)-One]
Emax [1]: 11.3 ± 3.47%

C[C@]12CC[C@@H]3c4ccc(O)cc4CC[C@H]3[C@@H]1CC[C@@H]2O [Compound E2, 17β-estradiol, reference compound]
Emax [1]: 100 ± 11.3%
